Key:
USP14 = USP14 (Homo sapiens, UniProt P54578); experiment: Cellular thermal shift assay (CETSA) in OPM-2 cells; type: cell-based; design: endogenous in cells; host or cells: OPM-2 multiple myeloma cells; details: 1 μM, 1 hour
Procedure: For CETSA, the same amount of cells as one sample was treated with required condition and collected as described. Each sample was suspended in PBS supplemented with protease inhibitors after they were washed in PBS. And then these samples were heated at 51, 53, or 55 °C for 3 min. Immediately after heating, tubes were removed and incubated at room temperature for 3 min, and then snap-frozen in liquid nitrogen. Samples were freeze-thawed twice and centrifuged at 20,000 g for 20 min at +4 °C and supernatants were analysed by Western-blotting.

UCHL5 = molecular target: T1, UCHL5 (Homo sapiens, UniProt Q9Y5K5); experiment: HA-Ub-VS active-site labeling of purified 19S, UCHL5; type: biochemical; details: purified 19S RP; compared with USP14
T1 construct: purchased Boston Biochem E-366
Procedure: Cell extract proteins were resolved by Tris-Acetate PAGE gels (Invitrogen, Carlsbad, CA) and transferred onto a polyvinylidene difluoride (PVDF) membrane for western blotting. For Ub-VS labeling, we lysed cell pellets from control or treated cells with buffer (50 mM HEPES pH 7.4, 250 mM sucrose, 10 mM MgCl2, 2 mM ATP, 1 mM DTT and 1%NP-40) on ice for 30 min and removed debris by centrifugation. We labeled 25 μg of protein with 1 μM Ub-VS for 30 min at 37 °C. We resolved samples by SDS-PAGE and performed immunoblotting. For HA-Ub-VS labeling, we pretreated purified 19S (5 nM) with DMSO or 2.5, 5, 10, 15 or 25μM 1570 for 10 min at room temperature, which followed with labeling with 1 μM HA-Ub-VS for 30 min at 37 °C and immunoblotting.

RPMI8226 tumors = experiment: Subcutaneous RPMI8226 multiple myeloma model in mice; type: in vivo
Procedure: Tissue sections were deparaffinized with xylene, rehydrated and microwaved and then incubated with primary antibodies diluted in 1% (wt/vol) BSA and visualized by standard avidin–biotin–peroxidase complex technique (Vector Laboratories, Burlingame, CA, USA). Counterstaining was performed with Mayer’s haematoxylin. Slides were mounted in Vectashield containing DAPI and images recorded in a Zeiss Axioplan 2 fluorescence microscope. Antibodies: KI67 Dako #M7240 (1:100)(using Rodent Block (Biocare-RBM961) and Envision Plus anti-mouse labeled polymer (Dako K4001); Ub-K48 (Millipore-05-1307) (1:100) (serum free Protein block (Dako-X0909)) and Envision + anti-rabbit labeled polymer (Dako-K4003); CXCR4 (Sigma-C3116) (1:400) (Dako-X0909) and Envision + anti-rabbit labeled polymer (Dako-K4003); cleaved casapse-3 (Cell Signaling-9664) (1:100) (Dako-X0909) and Envision + anti-rabbit labeled polymer (Dako-K4003).
Two different multiple myeloma models were used. Experimental protocols and methods were performed by Accelera (Nerviano, Italy) in accordance with guidelines and with permission from the local ethics committee (Nerviano Medical Sciences (NMS) Ethic Committee). All experimental protocols were approved by the Nerviano Medical Sciences (NMS) Ethic Committee. Study director was Marina Ciomei. SCID female mice were obtained from Charles River, Italy. Body weights at the day of tumor implant were between 19 and 22 grams. Treatment started at day 7 after injection of tumor cells and continued for 10 consequtive days. Mice were monitored daily for mortality and clinical signs. In the KMS-11 model, antitumor efficacy was evaluated in terms of survival increase respect to control. In the RPMI8226 model, the growth of subcutaneous tumors was recorded. For imaging, mice were injected intraperitoneally with 150 mg/kg d-luciferin (Promega) followed by anesthetization in 2–3% isoflurane atmosphere. After 10–12 minutes of biodistribution time, mice were imaged using a charge coupled device (CCD camera, Xenogen IVIS Lumina System) to evaluate the bioluminescence in the animal. Nose-cone isoflurane delivery system and heated stage for maintaining body temperature were used. A gray-scale image of the mice was captured, followed by an overlay of a bioluminescence map representing the spatial distribution of photons detected from cleaved luciferin in the cancer cells expressing luciferase. Signal intensity was quantified using a customized version of the IGOR Pro version 4.09A Software (WaveMetrics, Inc., Lake Oswego, OR) called Living Image version 3.00 (Xenogen). Photon emission was measured as whole-body radiance and the individual regions of interest (ROIs) were manually selected. Data were expressed as photon/second/cm^2/steradian.

OPM-2 cells = experiment: 3H-VLX1570 retention after wash-out in OPM-2 cells; type: cell-based, human; details: 1 hour exposure, 17 hours in drug-free medium
OPM-2-BZ^R = experiment: MTT antiproliferative assay, OPM-2-BZR; type: cell-based; details: Homo sapiens, OPM-2-BZ^R (bortezomib resistant), 72 hours
Procedure: Cell viability was monitored by the MTT (3-(4,5-dimethylthiazol-2-yl)-2,5-diphenyltetrazolium bromide) assay. For the MTT assay, cells were suspended at 5 × 10^5 cells/ml, and 100 μl aliquots were dispended into 96-well microtiter plates and exposed to drugs as described using DMSO control. At the end of incubations, 10 μl of a stock solution of 5 mg/ml MTT (3-(4,5-dimethylthiazol-2-yl)-2,5-diphenyltetrazolium bromide), was added into each well, and the plates were incubated 4 hours at 37 °C. Formazan crystals were dissolved with 100 μl of 10% SDS/10 mM HCl solution overnight at 37 °C. Since MTT assays are affected by mitochondrial activity, and since OXPHOS is affected by VLX1570 (unpublished observation), we used the acid phosphatase method[49] to determine cell viability in some experiments. After washing twice with PBS, cells were lysed in 100 μl of 0.1 M sodium acetate, 0,1% Triton X-100, p-nitrophenylphosphate (Pierce Biotechnology Inc, Rockford, IL) and incubated for 90 min at 37 °C. At the end of the incubation, 10 μl NaOH was added to each well and A405 was determined.

OPM-Bz^R cells = experiment: 3H-VLX1570 cellular uptake, OPM-Bz^R versus parental cells; details: OPM-Bz^R cells compared to parental cells

Chain of USP14 (P54578 whole entry): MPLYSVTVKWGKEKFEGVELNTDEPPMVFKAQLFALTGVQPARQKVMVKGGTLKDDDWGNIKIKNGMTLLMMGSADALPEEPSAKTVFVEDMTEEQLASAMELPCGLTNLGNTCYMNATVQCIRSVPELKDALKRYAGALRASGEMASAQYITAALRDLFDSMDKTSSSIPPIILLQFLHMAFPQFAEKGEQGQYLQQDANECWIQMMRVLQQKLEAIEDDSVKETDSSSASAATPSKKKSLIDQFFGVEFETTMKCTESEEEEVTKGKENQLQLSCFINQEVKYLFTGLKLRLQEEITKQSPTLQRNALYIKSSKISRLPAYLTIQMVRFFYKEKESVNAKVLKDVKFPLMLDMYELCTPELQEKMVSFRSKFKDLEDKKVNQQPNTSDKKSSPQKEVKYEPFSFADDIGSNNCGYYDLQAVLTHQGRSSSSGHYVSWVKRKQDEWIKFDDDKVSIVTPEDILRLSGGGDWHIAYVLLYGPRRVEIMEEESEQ

Structure (SMILES): C=CC(=O)N1CC/C(=C\c2ccc(F)c([N+](=O)[O-])c2)C(=O)/C(=C/c2ccc(F)c([N+](=O)[O-])c2)C1 [VLX1570]
- thermostabilization of USP14 (USP14): thermostabilized
- thermostabilization of USP14 (USP14; 53°–55 °C): 2.5 fold control
- inhibition of UCHL5 (Ub-VS labeling) (UCHL5): required higher drug concentrations
- tumor growth (RPMI8226 tumors; 3 mg/kg, 10 consecutive days, subcutaneous RPMI8226): significant decrease in tumor growth
- CXCR4 staining in tumors (immunohistochemistry) (RPMI8226 tumors; RPMI8226 tumors, 3 mg/kg): decreased CXCR4 staining
- K48-linked ubiquitin chains in tumors (RPMI8226 tumors; RPMI8226 tumors, 3 mg/kg): increases in K48-linked ubiquitin chains
- active caspase-3 in tumors (RPMI8226 tumors; RPMI8226 tumors, 3 mg/kg): increased active caspase-3
- ERK phosphorylation in RPMI8226 cells in vivo (RPMI8226 tumors; after exposure of mice): decreased ERK phosphorylation
- drug associated with the cells after wash-out (OPM-2 cells): Approximately 70%
- IC50 (OPM-2-BZ^R): 191 ± 1 nM
- cellular uptake of radiolabeled drug (OPM-Bz^R cells): decreased uptake

Reference: article PMC4893612 (Scientific Reports, 2016)
